Several values for one entry are separate records, joined by “and”; a condition that tells them apart may be missing. Equal values may be shown once.

This assay has as its target T1, recombinant human GST-Syk (Homo sapiens, UniProt P43405).
T1 construct: purchased Carna Biosciences 08-176
Briefly: Homogeneous Time-Resolved Fluorescence (HTRF) assay for the recombinant human Syk enzyme. The following applies: recombinant human GST-Syk 5 pM, ATP 25 μM, 10-dose titration 10 μM to 0.508 nM; read-out: rhSYK Activity IC50. Format: biochemical. The essentials:
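GST-hSyk fusion protein phosphorylated a peptide for 45 min at room temperature. The reaction was quenched with 2 nM Eu-anti-phosphotyrosine antibody and 70 nM SA-APC in 15 mM Tris pH 7.5, 40 mM EDTA, 0.01% Tween 20. The HTRF signal was read after 30 min.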
In general terms: Time-resolved FRET reads energy transfer from a long-lived donor to a nearby acceptor.
As usually defined, the IC50 is the concentration needed to halve the response being measured. For the compound `Cc1cc(Nc2nccc(OC(C)C)n2)cc(-c2cn(CC(C)(O)C(C)(C)O)nn2)c1` (centres unmarked) [Example 21.31, 2,3-dimethyl-1-[4-(3-methyl-5-{[4-(1-methylethoxy)pyrimidin-2-yl]amino}phenyl)-1H-1,2,3-triazol-1-yl]butane-2,3-diol], the IC50 was determined as 21.1 nM.

On to `Cc1cc(Nc2ncc(F)c(C(F)F)n2)cc(-c2cn(CC3OC(=O)NC3C)nn2)c1` (single isomer, unassigned) [Example 7.39, 5-{[4-(3-{[4-(difluoromethyl)-5-fluoropyrimidin-2-yl]amino}-5-methylphenyl)-1H-1,2,3-triazol-1-yl]methyl}-4-methyl-1,3-oxazolidin-2-one], for which the IC50 worked out at 12.3 nM.

On to `Cc1cc(Nc2cc(C(F)(F)F)ccn2)nc(-c2cn(C[C@@H](O)CO)nn2)c1` [Example 5.19, (2R)-3-[4-(4-methyl-6-{[4-(trifluoromethyl)pyridin-2-yl]amino}pyridin-2-yl)-1H-1,2,3-triazol-1-yl]propane-1,2-diol], for which the IC50 is 4 nM.

`Cc1cc(Nc2cc(C(F)(F)F)ccn2)nc(-c2cn(CC3(N)CC3)nn2)c1` [Example 5.112, 6-{1-[(1-aminocyclopropyl)methyl]-1H-1,2,3-triazol-4-yl}-4-methyl-N-[4-(trifluoromethyl)pyridin-2-yl]pyridin-2-amine]: the IC50 worked out at 17 nM.

For `Cc1cc(Nc2cc(C(F)(F)F)ccn2)nc(-c2cn(C(C)C(=O)N[C@@H](CO)Cc3ccccc3)nn2)c1` (stereo partly drawn) [Example 1.27, N-[(1R)-1-benzyl-2-hydroxyethyl]-2-[4-(4-methyl-6-{[4-(trifluoromethyl)pyridin-2-yl]amino}pyridin-2-yl)-1H-1,2,3-triazol-1-yl]propanamide], the IC50 turned out to be 102 nM.

`Cc1cc(Nc2cc(C(F)(F)F)ccn2)nc(-c2cn([C@H](C)C(=O)NCC(=O)O)nn2)c1` [Example 3.14, N-{(2R)-2-[4-(4-methyl-6-{[4-(trifluoromethyl)pyridin-2-yl]amino}pyridin-2-yl)-1H-1,2,3-triazol-1-yl]propanoyl}glycine]: the IC50 came out at 9.6 nM.

Take `Cc1cc(Nc2cc(C)c(Cl)cn2)nc(-c2cn(CC(C)(O)C(C)(C)O)nn2)c1` (centres unmarked) [Example 21.10, 1-(4-{6-[(5-chloro-4-methylpyridin-2-yl)amino]-4-methylpyridin-2-yl}-1H-1,2,3-triazol-1-yl)-2,3-dimethylbutane-2,3-diol]: the IC50 amounted to 20.1 nM.

In the case of `Cc1cc(Nc2nccc(C(F)(F)F)n2)cc(-c2cn(CC(N)=O)nn2)c1` [Example 5.79, 2-[4-(3-methyl-5-{[4-(trifluoromethyl)pyrimidin-2-yl]amino}phenyl)-1H-1,2,3-triazol-1-yl]acetamide], the IC50 was 73.8 nM and 81.8 nM.

As to `Cc1cc(Nc2cc(C(F)(F)F)ccn2)nc(-c2cn(CC(C)(O)C(N)=O)nn2)c1` (centres unmarked) [Example 1.12, 2-hydroxy-2-methyl-3-[4-(4-methyl-6-{[4-(trifluoromethyl)pyridin-2-yl]amino}pyridin-2-yl)-1H-1,2,3-triazol-1-yl]propanamide], the IC50 was determined as 4.9 nM.

As to `Cc1cc(Nc2cc(C(F)(F)F)ccn2)nc(-c2cn(CC3(O)CCOC3)nn2)c1` (single isomer, unassigned) [Example 5.12, 3-{[4-(4-methyl-6-{[4-(trifluoromethyl)pyridin-2-yl]amino}pyridin-2-yl)-1H-1,2,3-triazol-1-yl]methyl}tetrahydrofuran-3-ol], the IC50 came to 11.2 nM.

Consider `COC(=O)C(c1ccc(F)cc1)n1cc(-c2cc(C)cc(Nc3cc(C(F)(F)F)ccn3)n2)nn1` (racemic) [Example 5.26, methyl (4-fluorophenyl)[4-(4-methyl-6-{[4-(trifluoromethyl)pyridin-2-yl]amino}pyridin-2-yl)-1H-1,2,3-triazol-1-yl]acetate], for which the IC50 stood at 62.9 nM.

On to `Cc1cc(Nc2ncc(Cl)c(C)n2)cc(-c2cn(CC(C)(O)C(C)(C)O)nn2)c1` (centres unmarked) [Example 21.11, 1-(4-{3-[(5-chloro-4-methylpyrimidin-2-yl)amino]-5-methylphenyl}-1H-1,2,3-triazol-1-yl)-2,3-dimethylbutane-2,3-diol], for which the IC50 stood at 182 nM.

For the compound `Cc1cc(Nc2nccc(C(F)(F)F)n2)cc(-c2nnc(CCC(=O)O)[nH]2)c1` [Example 20.1, 3-(5-(3-Methyl-5-((4-(trifluoromethyl)pyrimidin-2-yl)amino)phenyl)-4H-1,2,4-triazol-3-yl)propanoic acid], the IC50 came out at 7.7 nM.

`Cc1cc(Nc2cc(C(F)(F)F)ccn2)nc(-c2cn(C3CS(=O)(=O)CC3O)nn2)c1` (centres unmarked) [Example 5.90, 4-[4-(4-methyl-6-{[4-(trifluoromethyl)pyridin-2-yl]amino}pyridin-2-yl)-1H-1,2,3-triazol-1-yl]tetrahydrothiophene-3-ol 1,1-dioxide]: the IC50 was 11.5 nM.

As for `Cc1cc(Nc2cc(C(F)(F)F)ccn2)nc(-c2cn(CCS(C)(=O)=O)nn2)c1` [Example 5.96, 4-methyl-6-{1-[2-(methylsulfonyl)ethyl]-1H-1,2,3-triazol-4-yl}-N-[4-(trifluoromethyl)pyridin-2-yl]pyridin-2-amine], the IC50 worked out at 47.1 nM.

Turning to `Cc1cc(Nc2ncc(F)c(C(F)F)n2)cc(-c2cn(CC3OC(=O)NC3C)nn2)c1` (single isomer, unassigned) [Example 7.38, 5-{[4-(3-{[4-(difluoromethyl)-5-fluoropyrimidin-2-yl]amino}-5-methylphenyl)-1H-1,2,3-triazol-1-yl]methyl}-4-methyl-1,3-oxazolidin-2-one], the IC50 was 33.1 nM.

On to `CCOC(=O)C(O)C(O)Cn1cc(-c2cc(C)cc(Nc3cc(C(F)(F)F)ccn3)n2)nn1` (centres unmarked) [Example 10.9, ethyl 2,3-dihydroxy-4-[4-(4-methyl-6-{[4-(trifluoromethyl)pyridin-2-yl]amino}pyridin-2-yl)-1H-1,2,3-triazol-1-yl]butanoate], for which the IC50 is 33.1 nM.

Take `Cc1cc(Nc2nccc(C(F)(F)F)n2)cc(-n2cc([C@]3(O)CC[C@@H](C(=O)O)CC3)nn2)c1` [Example 15.4, cis-4-hydroxy-4-[1-(3-methyl-5-{[4-(trifluoromethyl)pyrimidin-2-yl]amino}phenyl)-1H-1,2,3-triazol-4-yl]cyclohexanecarboxylic acid]: the IC50 was 12.5 nM.

Take `Cc1cc(Nc2nccc(C(F)F)n2)cc(-c2cn(CC3(O)CNC(=O)C3)nn2)c1` (single isomer, unassigned) [Example 31.2, 4-((4-(3-((4-(Difluoromethyl)pyrimidin-2-yl)amino)-5-methylphenyl)-1H-1,2,3-triazol-1-yl)methyl)-4-hydroxypyrrolidin-2-one]: the IC50 was determined as 4.7 nM.

With `Cc1cc(Nc2cc(C(F)(F)F)ccn2)nc(-c2cn(C(CO)c3ccccc3)nn2)c1` (centres unmarked) [Example 13.8, 2-[4-(4-methyl-6-{[4-(trifluoromethyl)pyridin-2-yl]amino}pyridin-2-yl)-1H-1,2,3-triazol-1-yl]-2-phenylethanol], the IC50 worked out at 7.1 nM.

For the compound `Cc1cc(Nc2cc(C(F)(F)F)ccn2)nc(-c2cn([C@@H](C)C(N)=O)nn2)c1` [Example 1.24, (2S)-2-[4-(4-methyl-6-{[4-(trifluoromethyl)pyridin-2-yl]amino}pyridin-2-yl)-1H-1,2,3-triazol-1-yl]propanamide], the IC50 turned out to be 14.2 nM.

In the case of `Cc1cc(Nc2cc(C(F)F)ccn2)nc(-c2cn(CC(C)(O)C(C)(C)O)nn2)c1` (centres unmarked) [Example 21.9, 1-[4-(6-{[4-(difluoromethyl)pyridin-2-yl]amino}-4-methylpyridin-2-yl)-1H-1,2,3-triazol-1-yl]-2,3-dimethylbutane-2,3-diol], the IC50 amounted to 13.5 nM.

As to `COC(=O)C1CCC(O)(Cn2cc(-c3cc(C)cc(Nc4cc(C(F)(F)F)ccn4)n3)nn2)CC1(C)C` (centres unmarked) [Example 4.12, methyl 4-hydroxy-2,2-dimethyl-4-{[4-(4-methyl-6-{[4-(trifluoromethyl)pyridin-2-yl]amino}pyridin-2-yl)-1H-1,2,3-triazol-1-yl]methyl}cyclohexanecarboxylate], the IC50 came to 145 nM.

Take `Cc1cc(Nc2nccc(C(F)(F)F)n2)cc(-c2cn(C3CCC(C(=O)O)CC3)nn2)c1` (centres unmarked) [Example 3.16, 4-[4-(3-methyl-5-{[4-(trifluoromethyl)pyrimidin-2-yl]amino}phenyl)-1H-1,2,3-triazol-1-yl]cyclohexanecarboxylic acid]: the IC50 was found to be 33.3 nM.

For `Cc1cc(Nc2nccc(C(F)(F)F)n2)cc(-c2cn(CC(=O)N3[C@@H](C)COC[C@@H]3C)nn2)c1` (relative stereo) [Example 5.47, N-[3-(1-{2-[trans-3,5-dimethylmorpholin-4-yl]-2-oxoethyl}-1H-1,2,3-triazol-4-yl)-5-methylphenyl]-4-(trifluoromethyl)pyrimidin-2-amine], the IC50 was determined as 80.2 nM.

Consider `Cc1cc(Nc2cc(C(F)(F)F)ccn2)nc(-c2cn(C3CCC(C(N)=O)C(C)(C)C3)nn2)c1` (single isomer, unassigned) [Example 1.5, 2,2-dimethyl-4-[4-(4-methyl-6-{[4-(trifluoromethyl)pyridin-2-yl]amino}pyridin-2-yl)-1H-1,2,3-triazol-1-yl]cyclohexanecarboxamide], for which the IC50 stood at 8 nM.

Regarding `Cc1ccnc(Nc2cc(C)cc(-c3cn(CCO)nn3)n2)c1` [Example 5.18, 2-(4-{4-methyl-6-[(4-methylpyridin-2-yl)amino]pyridin-2-yl}-1H-1,2,3-triazol-1-yl)ethanol], the IC50 was 154 nM.

For the compound `Cc1cc(Nc2nccc(C(F)F)n2)cc(-c2cn(CC3CNC(=O)O3)nn2)c1` (single isomer, unassigned) [Example 7.4, 5-((4-(3-((4-(difluoromethyl)pyrimidin-2-yl)amino)-5-methylphenyl)-1H-1,2,3-triazol-1-yl)methyl)oxazolidin-2-one], the IC50 came to 1.8 nM.

Consider `Cc1cc(Nc2cc(C(F)(F)F)ccn2)nc(-c2cn(C(C)c3ccc(C(=O)O)cc3)nn2)c1` (racemic) [Example 5.41, 4-{1-[4-(4-methyl-6-{[4-(trifluoromethyl)pyridin-2-yl]amino}pyridin-2-yl)-1H-1,2,3-triazol-1-yl]ethyl}benzoic acid], for which the IC50 was 1.1 nM.

(Values after US9586931B2 (Merck Sharp & Dohme Corp., priority 2012, dated 2017).)
